Source: PubChem BioAssay (NCI)
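Assay format: 96-well plates, 48-hour exposure. GI50: concentration for 50% inhibition of growth. Definition used: TGI = concentration required for complete inhibition of growth.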

What was measured:
Assay in all cases: growth of human tumour cells (NCI), 48 h
[1] = test system: SF-539 CNS
[2] = test system: UACC-257 melanoma
[3] = test system: SNB-19 CNS
[4] = test system: COLO 205 colon
[5] = test system: A498 renal
[6] = test system: SN12C renal
[7] = test system: SF-268 CNS
[8] = test system: NCI-H23 lung
[9] = test system: EKVX NSCLC

Compound | TGI [1] [µM] | TGI [2] [µM] | TGI [3] [µM] | TGI [4] [µM] | TGI [5] [µM] | TGI [6] [µM] | TGI [7] [µM] | TGI [8] [µM] | TGI [9] [µM] | GI50 [2] [µM] | GI50 [3] [µM] | GI50 [4] [µM] | GI50 [5] [µM] | GI50 [6] [µM] | GI50 [7] [µM] | GI50 [8] [µM] | GI50 [9] [µM] | GI50 [1] [µM]
Cc1ccc(NC(=O)/C(=N/NC(=O)CC#N)C2C(=O)N(c3ccccc3)N=C2N)cc1C (stereo not drawn) | > 100 | > 100 | > 100 | > 100 | > 100 | > 100 | > 100 | > 100 | > 100 |  |  |  |  |  |  |  |  | 
O=C1CC(c2ccccc2)NCN1 (stereo not drawn) |  | > 100 | > 100 | > 100 | > 100 | > 100 | > 100 | > 100 | > 100 |  |  |  |  |  |  |  |  | 
CCOC(=O)c1ccc(C(O)CC(=O)OC(C)(C)C)[nH]1 (stereo not drawn) |  | > 100 | > 100 | > 100 | > 100 | 62.4 | > 100 | > 100 | 49.6 | 40.8 | 42.9 | 41.3 | 23.7 | 17.4 | 28.7 | 44.4 | 22.7 | 
N#CC(c1ccc(Cl)cc1)c1cccc(Cl)n1 (stereo not drawn) |  | > 100 | > 100 | > 100 | > 100 | > 100 | > 100 | > 100 | > 100 |  |  |  |  |  |  |  |  | 
COc1ccc2c(c1)/C(=C/c1c(-c3ccc(C)cc3)nc3sc(C)cn13)C(=O)N2 | > 100 | 57.1 | > 100 | > 100 | 60.6 | 31.9 | > 100 | 32.5 | > 100 | 16.8 | 20.6 | 19.8 | 20.2 | 13.9 | 11.1 | 6.86 | 9.62 | 20.3
O[C@H]1[C@H]2[C@H](O)CCCN2C[C@H]1O | > 100 | > 100 | > 100 | > 100 | > 100 | > 100 | > 100 | > 100 | > 100 |  |  |  |  |  |  |  |  | 
NC1=NN(c2ccccc2)C(=O)C1C(=O)C(=O)Nc1cccc(C(F)(F)F)c1 (stereo not drawn) | > 100 | > 100 | > 100 | > 100 | > 100 | > 100 | > 100 | > 100 | > 100 |  |  |  |  |  |  |  |  | 
C/C(=N\[N+](C)(C)C)C(c1ccccc1)C1(c2ccccc2)C(c2ccccc2)=C1c1ccccc1 (stereo not drawn) | > 100 | > 100 | > 100 |  | > 100 | > 100 |  | > 100 | > 100 |  |  |  |  |  |  |  |  | 
CC(=O)Oc1cc2c(=O)oc3c(OC(C)=O)c(OC(C)=O)c(OC(C)=O)c4c(=O)oc(c1OC(C)=O)c2c34 | 75.5 | > 100 | > 100 | > 100 | > 100 | 61.1 | > 100 | > 100 | > 100 |  |  |  |  |  |  |  |  | 
CCCN1C(=O)/C(=C/c2ccc(O)cc2)SC1=Nc1ccccc1 |  | > 100 | 46.5 | 51.3 |  | 35.5 | 32.4 | 93 | 32.1 | > 100 | 21.1 | 22.7 |  | 18.4 | 17.1 | 34.1 | 14.5 | 
CCCCCCCCO/N=C\c1c2c(O)c3c(O)c(C)c4c(c3c1O)C(=O)C(C)(O/C=C\C(OC)C(C)C(OC(C)=O)C(C)C(O)C(C)C(O)C(C)/C=C\C=C(\C)C(=O)N2)O4 (stereo not drawn) | 9.75 | 4.69 | 8.93 | 3.59 | 7.12 | 9.22 | 8.18 | 6.55 | 6.59 | 1.34 | 2.42 | 1.35 | 1.81 | 2.39 | 2.02 | 1.74 | 1.43 | 2.74
O=C(/C=C/c1ccc2c(c1)OCO2)c1ccccc1 | 54.5 | 39.5 | 32.1 | 36.7 | 25.4 | 40.6 | 35.6 | 38.6 | 31.1 | 18.6 | 15.1 | 19.1 | 12.4 | 18.6 | 15 | 17.4 | 15.1 | 20.5
O=C(CCc1ccc(O)c(O)c1)c1ccc(O)c(O)c1O | 37.7 | > 100 | > 100 | 34.3 | > 100 | 31.9 | 60.6 | 61.3 | 48.4 |  |  |  |  |  |  |  |  | 
COC1=CC(C)C2C[C@H]3O[C@H](O)C[C@H]4C(C)C(=O)C(O)C([C@@]2(C)C1=O)[C@@]34C (stereo partly drawn) | > 100 | > 100 |  | > 100 | > 100 | > 100 |  | > 100 | > 100 |  |  |  |  |  |  |  |  | 
O=C(/C=C\c1cccc2ccccc12)c1ccc(Br)cc1 | 41.9 | 51.9 | 61.1 | 91.6 | > 100 | > 100 | 53.1 | > 100 | 52.1 |  |  |  |  |  |  |  |  | 
COc1ccc(/C(Cl)=C(\C=O)c2cc(OC)c(OC)c(OC)c2)cc1OC | 87.9 | > 100 | > 100 | > 100 | > 90.3 | > 100 | > 100 | > 100 | > 100 |  |  |  |  |  |  |  |  | 
C/C=C/CP(=O)(c1ccccc1)c1ccccc1 | > 100 | > 100 | > 100 | > 100 | > 100 | > 100 |  | > 100 | > 100 |  |  |  |  |  |  |  |  | 
c1cc2[se][se]c3c4cccc5[se][se]c(c(c1)c23)c54 | > 100 | > 100 | > 100 | > 100 | > 100 | > 100 | > 100 | > 100 |  |  |  |  |  |  |  |  |  | 
C[C@]12CC[C@H]3[C@@H](CC=C4C[C@@H](O)CC[C@@]43C)[C@@H]1C/C(=C\c1cccc(OCCCn3ccnc3)c1)[C@@H]2O | 23.7 | 29.2 | 37.6 | 27 | 26.8 | 38 | 37.5 | 30.1 | 33.9 | 13.1 | 17.1 | 8.33 | 13.4 | 15.8 | 16.8 | 13 | 13.5 | 8.01
CC(=O)[CH-]C(C)=O.CC(=O)[CH-]C(C)=O.CC(=O)[CH-]C(C)=O.[Cl-].[Hf+4] | > 100 | > 100 | > 100 | > 100 | > 100 | > 100 | > 100 | > 100 | > 100 | > 100 | > 100 | > 100 | > 100 | > 100 | > 100 | > 100 | > 100 | > 100
O=C(Nc1ccc(N=Nc2ccccc2)cc1)Sc1ccccc1C(=O)O | > 100 | > 100 | > 100 | > 100 | > 100 | > 100 | > 100 | > 100 | > 100 |  |  |  |  |  |  |  |  | 
Cc1ccc(C2=NN(C)COC2C(F)(F)F)cc1 (stereo not drawn) | > 100 | > 100 | > 100 | > 100 |  | > 100 | > 100 | > 100 | > 100 |  |  |  |  |  |  |  |  | 
COc1ccc(C(=O)O)c2c(=O)c3ccccc3[nH]c12 | > 100 | > 100 | > 100 | > 100 | > 100 | > 100 | > 100 | > 100 | > 100 |  |  |  |  |  |  |  |  | 
CC1CC(C)C(=O)C(C(=O)CC2CC(=O)NC2=O)C1 (stereo not drawn) | > 100 | > 100 | > 100 | > 100 | > 100 | > 100 | > 100 | > 100 | > 100 |  |  |  |  |  |  |  |  | 
O=C(O/N=C1/CCC/C1=C\c1ccccc1)c1ccccc1 | > 100 | > 100 |  | > 100 | > 100 | > 100 | > 100 | > 100 | > 100 |  |  |  |  |  |  |  |  | 
N#Cc1c(C(N)=O)ncn1Cc1ccccc1 | > 100 | > 100 | > 100 | > 100 | > 100 | > 100 | > 100 | > 100 | > 100 |  |  |  |  |  |  |  |  | 
O=C(CC1(O)C(=O)Nc2ccccc21)c1ccc(O)cc1O (stereo not drawn) | > 100 | > 100 | > 100 | > 100 | > 100 | > 100 | > 100 | > 100 | > 100 |  |  |  |  |  |  |  |  | 
Cn1cc(C(=O)/C(Cl)=C(\Cl)C(=O)O)c2ccccc21 | > 100 | > 100 |  |  | > 100 |  |  | > 100 | > 100 |  |  |  |  |  |  |  |  | 
CC1(C)OC(=O)C=C(O)O1.CC1(C)OC(=O)C=C(O)O1.CCO.Oc1ccc2c(c1)CCC2.[Ti] | > 100 | > 100 | > 100 | > 100 | > 100 | > 100 | > 100 | > 100 | > 100 | > 100 | 56.3 | > 100 | > 100 | > 100 | > 100 | > 100 | > 100 | > 100
